Where a SMILES comes first, the peptide text is derived from it. [ ]: non-standard residue; d: D form. NMeI = CC[C@H](C)[C@H](NC)C(=O)O; NMeD = CN[C@@H](CC(=O)O)C(=O)O; NMeV = CN[C@H](C(=O)O)C(C)C; Pip = O=C(O)[C@@H]1CCCCN1; dLac = C[C@@H](O)C(=O)O
Key:
V. inequalis = test: Fungicidal activity, mycelial growth on potato dextrose agar; format: cell-based, Venturia inequalis; conditions: in as low concentrations as 0.0016 μg/ml, 3 to 6 days
Procedure: (§1) Experiments were carried out to determine the potency of the compound of formula IV towards various fungi. The active ingredient was dissolved in 60% ethanol and added to cooled potato dextrose agar to give final concentrations of 25, 5, 1, 0.2, 0.04 and 0.0016 μg a.i. per ml agar, respectively. Control dishes contained no active ingredient.
(§2) 10 ml Agar was poured into 9 cm petri dishes and each concentration was inoculated with actively growing mycelium of the fungal isolates tested for. The dishes were incubated at the optimum temperature for growth of the isolates for 3 to 6 days after which time the growth was measured in mm and compared to the controls.
(§3) The test isolates covered a broad range of fungi within the Oomycetes, the Ascomycetes, the Basidiornycetes, the Deuterornycetes, and the Zygomycetes.

B. cinerea = test: as above; format: cell-based, Botrytis cinerea; conditions: in as low concentrations as 0.0016 μg/ml, 3 to 6 days
Procedure: as §1, §2, §3

Basidiornycetous species = test: as above; format: cell-based, Basidiornycetes; conditions: 25 to 0.0016 μg a.i. per ml agar
Procedure: as §1, §2, §3

Botrytis cinerea [1] = test: Activity against Botrytis cinerea on tomato plants; format: in vivo; conditions: liquid suspension 0.035 mg active ingredient per ml; inoculated after 24 hours; 6 days incubation; controls all overgrown
Procedure: Tomato plants (variety "First in Field", 3 weeks old) were treated with a liquid suspension containing 0.035 mg active ingredient per ml. The plants were kept 24 hours in a green house to dry before they were inoculated with a spore suspension containing 10^5 Botrytis cinerea spores per ml in 25% grapefruit juice. […] Control plants that were treated as above except for the application of the active ingredient in suspension were all overgrown with Botrytis cinerea.

Botrytis cinerea [2] = test: Activity against Botrytis cinerea on apples (Golden Delicious); format: in vivo; conditions: suspension 9.8 μg active ingredient per ml; inoculated the following day; one week, 18°-20° C.; untreated fruits 100% infected
Procedure: Artificially injured apples were sprayed with a suspension containing 9.8 μg active ingredient per ml.On the following day the treated fruits were inoculated with a spore suspension of the fungus containing 1×10^5 /ml, and incubated for a week at high air humidity and 18°-20° C. At the evaluation the infected places of injury were counted and from that the fungicidal effect of the test substance evaluated. […] The untreated fruits were 100% infected with Botrytis cinerea.

Botrytis cinerea [3] = test: Field trial, Botrytis cinerea on grapes (Ugni Blanc); format: in vivo; conditions: 100, 300, and 900 g a.i./ha, three sprayings
From the text: Field trial performed in Bordeaux, France, in accordance with CEB Method No. 37. A plot consisted of 15 plants in one row and six replicates were used. The active compound was used in a test formulation containing approximately 10% active ingredient (a.i.). Three concentrations of active compound were applied: 100, 300, and 900 g a.i./ha. The water volume was 300 l/ha. The grapes were sprayed at the following growth stages: T1, end of formation of bunches of grapes; T2, beginning of ripening of grapes; and T3, 3 to 4 weeks before harvest. The commercial fungicides […]® and BASULTRA® were used as standard references. The assessment was performed by estimating the intensity and frequency of the Botrytis cinerea attack after the appearance of the disease.

Botrytis cinerea [4] = test: Green house trial, Botrytis cinerea on tomatoes (Matador); format: in vivo; conditions: at all the tested concentrations 0.01%, 0.03%, and 0.09% a.i.
From the text: Green house trial performed in Lyngby, Denmark.
A plot consisted of 7 plants (approximately 12 weeks old, 1 m high) and three replicates were used. The plants were kept in a plastic "tent" to maintain a high humidity. Before spraying the plants 20 leaves per plant were mechanically injured to improve the attack of Botrytis cinerea. The active compound was used in a test formulation containing approximately 10% active ingredient (a.i.). Three concentrations of active compound were applied: 0.01%, 0.03%, and 0.09% a.i. The water volume was 770 ml/plot.
The tomatoes were sprayed just after wounding the leaves. 24 hours after fungicide treatment an artificial inoculation was done by spraying spores of B. cinerea suspended in 30% orange juice on the plants.
The commercial fungicide RONILAN®was used as standard reference.
The assessment was performed by counting the number of attacks on leaves, stalks, fruits, and flower buds.

[5] = test system: Botrytis cinerea isolate A (resistant to BENLATE®); test: In vitro agar growth assay, fungicide resistant Botrytis cinerea; format: cell-based; conditions: 3 days, 25 C, control 76
Procedure: (§4) Activity against fungicide resistant Botrytis cinerea isolates One isolate resistant to BENLATE® (isolate A), and one isolate resistant to BENLATE®,ROVRAL® and SUMISCLEX® (isolate B) were isolated from plants which had been sprayed with the above mentioned pesticides. The effect of BK 202 on these isolates was determined in an in vitro assay and compared with the three commercial pesticides. The fungicides were added to agar and dispensed in petri dishes at different concentrations and were inoculated with a sensitive (normal(isolate C)) and the two resistant strains. After 3 days at a temperature of 25 C growth was measured in mm.

[6] = test system: Botrytis cinerea isolate B (resistant to BENLATE®, ROVRAL® and SUMISCLEX®); test: as above; format: cell-based; conditions: 3 days, 25 C, control 80
Procedure: as §4

[7] = test system: Botrytis cinerea isolate C (sensitive, normal); test: In vitro agar growth assay, sensitive Botrytis cinerea; format: cell-based; conditions: 3 days, 25 C, control 74
Procedure: as §4

[8] = concentration 0.125 (unit not given)
[9] = concentration 2 (unit not given)
[10] = concentration 10 (unit not given)

`CC[C@H](C)[C@H]1C(=O)NCC(=O)N(C)[C@@H](C(C)C)C(=O)N[C@@H](Cc2ccc(OC)cc2)C(=O)O[C@H](C)C(=O)N2CCCC[C@H]2C(=O)N(C)[C@@H](C(C)C)C(=O)N[C@@H](C(C)C)C(=O)N(C)[C@@H](CC(=O)O)C(=O)N(C)[C@@H](C(C)C)C(=O)N1C` [BK 202, cyclo- Pec-MeVal-Val-MeAsp-MeVal-MeIle-Gly-MeVal-TyrOMe-D-Lact!] (cyclo(G[NMeV]Y(Me)[dLac][Pip][NMeV]V[NMeD][NMeV][NMeI])) was tested. Which inhibition of growth (V. inequalis) did it give?
The inhibition of growth was “very strong”.

And the inhibition of growth (B. cinerea)?
The inhibition of growth was “very strong”.

And the fungicidal activity (Basidiornycetous species)?
The fungicidal activity was “practically no activity”.

And the “attack from the fungus on tomato plants” value (Botrytis cinerea [1])?
The value was “No attack from the fungus was observed”.

And the “fungicidal effect on injured apples” value (Botrytis cinerea [2])?
Its value is “prevented the growth of fungus completely”.

And the “fungicidal effect (intensity of infection, FIG. 9) compared to both RONILAN® and BASULTRA®” value (Botrytis cinerea [3])?
The value was “superior”.

What about the “fungicidal effect (degree of infection, FIG. 10) compared to RONILAN®” value (Botrytis cinerea [4]) of the same compound?
Its value is “superior”.

What about the “growth, Isolate A” value [5, 8] of the same compound?
Its value is 0 mm.

What about the “growth, Isolate A” value [5, 9] of the same compound?
Its value is 0 mm.

And the “growth, Isolate A” value [5, 10]?
Its value is 0 mm.

What about the “growth, Isolate B” value [6, 8] of the same compound?
Its value is 0 mm.

And the “growth, Isolate B” value [6, 9]?
The value was 0 mm.

What about the “growth, Isolate B” value [6, 10] of the same compound?
Its value is 0 mm.

What about the “growth, Isolate C” value [7, 8] of the same compound?
Its value is 0 mm.

And the “growth, Isolate C” value [7, 9]?
The value was 0 mm.

And the “growth, Isolate C” value [7, 10]?
Its value is 0 mm.

From patent US5514648A, “Fungicidally active compounds” (priority 1990, dated 1996)
